The test system of one experiment is HT29 colon. Details: method as in PMID 36142383, PMID 37173934, PMID 36296713. To be noted: cited from earlier work.
The next experiment has as its system U87 glioblastoma. Details: method as in PMID 36142383, PMID 37173934, PMID 36296713. To be noted: cited from earlier work.
For a further experiment, the system named is H460 lung. Details: method as in PMID 36142383, PMID 37173934, PMID 36296713. The note with it: cited from earlier work.
Another experiment deals with A431 skin. Details: method as in PMID 36142383, PMID 37173934, PMID 36296713. The note with it: cited from earlier work.
For the next experiment, the system named is Du145 prostate. Details: method as in PMID 36142383, PMID 37173934, PMID 36296713. To be noted: cited from earlier work.
The test system of another experiment is BE2-C neuroblastoma. Details: method as in PMID 36142383, PMID 37173934, PMID 36296713. To be noted: cited from earlier work.
A further experiment has as its system SJ-G2 glioblastoma. Also noted: method as in PMID 36142383, PMID 37173934, PMID 36296713. The note with it: cited from earlier work.
The subject of another experiment is MIA pancreas. Also noted: method as in PMID 36142383, PMID 37173934, PMID 36296713. The note with it: cited from earlier work.
The test system of another experiment is A2780 ovarian. Also noted: method as in PMID 36142383, PMID 37173934, PMID 36296713. To be noted: cited from earlier work.
Experiment [1] has as its system cisplatin-resistant ADDP ovarian variant. Also noted: method as in PMID 36142383, PMID 37173934, PMID 36296713. The note with it: cited from earlier work.
The subject of a further experiment is MCF-7 breast. Also noted: method as in PMID 36142383, PMID 37173934, PMID 36296713. To be noted: cited from earlier work.
The subject of experiment [2] is multiple human cell lines. Also noted: method as in PMID 36142383, PMID 37173934, PMID 36296713. The note with it: average over all cell lines; cited from earlier work.
The subject of experiment [3] is HT29 colon cells. Put plainly: TMRE mitochondrial membrane potential (MtMP) assay. Type of experiment: cell-based, human. The note with it: GI50 drug concentration (FCCP 20 μM). How it is done: This was achieved by determining if the overproduction of ROS induced by these complexes impacts mitochondrial activity by altering MtMP. Briefly, there is evidence showing a strong correlation between increased levels of ROS and mitochondrial impairment. […] The MtMP changes recorded are measured as RFU. […] To investigate the MtMP changes in HT29 treated cells, a TMRE-MtMP Assay Kit (Abcam, Cambridge, MA, USA) was used, as previously described. In 96-well plates, 25,000 cells/mL of HT29 colon cells in DMEM were seeded. Cells were treated with a GI50 drug concentration for each complex. At 24, 48 or 72 h, cells were washed with PBS and stained with tetramethylrhodamine, ethyl ester (TMRE) (1 μM) and incubated for 30 min. TMRE was then removed, and cells were then re-washed with PBS (0.2% BSA), after which phenol red free media was added. The plates were directly scanned to measure fluorescence (expressed as RFU), using the Glo-Max®-Multimode microplate reader (Promega Corporation, Alexandra, VIC, Australia) at an excitation/emission of 549/575 nm. For the positive control, 20 μM carbonyl cyanide 4-(trifluoromethoxy) phenylhydrazone (FCCP)) was added to the cells and incubated for 10 min. The cells were washed with PBS (0.2% BSA) and stained with TMRE (1 μM) for 30 min; this was removed, and phenol red free media was added, and the final solution was scanned as mentioned above.

For experiment [4], the system named is histone deacetylase (HDAC). Briefly: Fluorometric HDAC activity assay on extracts of treated HT29 cells. The format is cell-based, human. The note with it: HT29 colon cells treated 72 h at GI50 concentration, lower RFU = decline in HDAC activity, HT29 extract control 5154 ± 40. How it is done:
All values are expressed as RFU.
To study the HDAC activity in HT29 treated cells, a Fluorometric HDAC Activity Assay Kit ab156064 (Abcam, Cambridge, MA, USA) was used and all sample preparations were made based on the manufacturer’s protocol. A total of 10^6 cells/mL of HT29 cells were seeded in DMEM with serum deprivation for 18 h to synchronise the cells. […] Cells were then washed with cold PBS and resuspended in lysis buffer (10 mM Tris HCl (pH 7.5), 10 mM NaCl, 15 mM MgCl2, 250 mM sucrose, 0.5% NP-40 and 0.1 mM EGTA) and lysed on ice for 20 min. Cells were centrifuged through 4 mL of sucrose cushion (30% sucrose, 10mM Tris HCl (pH 7.5), 10 mM NaCl and 3mM MgCl2) at 1300× g for 10 min at 4 °C. Supernatant was discarded and the pellet was washed and resuspended in extraction buffer (50 mM HEPES-KOH (pH 7.5), 420 mM NaCl, 0.5 mM EDTA 2Na, 0.1 mM EGTA and 10% glycerol) and then sonicated for 30 s. Nuclei were lysed for 30 min on ice and centrifuged at 20,000× g for 30 min. The supernatant was collected, and the samples were prepared for the fluorometric assay according to the manufacturer’s protocol (Histone Deacetylase (HDAC) Activity Assay Fluorometric Kit ab156064, Abcam). The changes in the relative fluorescence intensity (expressed as RFU) were recorded each minute over 60 min using the Glo-Max®-Multimode microplate reader (Promega Corporation, Alexandra, VIC, Australia) at an excitation/emission of 355/460 nm.

Experiment [5] has as its system non-tumour-derived MCF10A breast line. Also noted: method as in PMID 36142383, PMID 37173934, PMID 36296713. The note with it: cited from earlier work.
The subject of experiment [6] is HT29 colon cells. Details: method as in PMID 36142383, PMID 37173934, PMID 36296713. To be noted: cited from earlier work.
In experiment [7] the test system is HT29 colon cells. Briefly: DCFDA cellular ROS production assay. Type of experiment: cell-based, human. The note with it: GI50 drug concentration (TBHP 20 μM). How it is done:
All values are expressed as relative fluorescence units (RFU).
To evaluate the presence of ROS in treated cells, a DCFDA/H2DCFDA-cellular ROS Assay Kit (Abcam, Cambridge, MA, USA) was used, as previously described. A total of 25,000 cells/mL of HT29 cells in DMEM were seeded in 96-well plates. Cells were washed with 1X kit buffer, and then stained with 25 μM 2′,7′-dichlorofluorescein diacetate (DCFH-DA) and incubated for 45 min. DCFH-DA was then removed, and cells were then re-washed with 1X kit buffer, after which phenol red free media was added. Cells were then treated with a GI50 drug concentration for each complex. The plates were directly scanned to measure fluorescence (relative fluorescence units (RFU)) at the time points indicated the Glo-Max®-Multimode microplate reader (Promega Corporation, Alexandra, VIC, Australia) at an excitation/emission of 485/535 nm, which is directly correlated to the DCFH-DA that is deacetylated by cellular esterases and then oxidised by ROS to the fluorescent compound DCF. To generate the positive control (20 μM tert-butyl hydroperoxide (TBHP)), cells were washed with 1X kit buffer, and stained with DCFDA (25 μM) for 45 min; this was removed and TBHP was added in phenol red free media, and the resulting solution was scanned as described above.

Each structure is given as a SMILES string. Values joined by “and” are separate entries in the source; they are usually repeats but may differ in a detail not shown here. Equal values may be shown once. Read-outs that look alike come from different tables or passages of the source. A value given as a limit tells only on which side of the number the result lay.

Take `O=C1[O][Pt]2([NH][C@@H]3CCCC[C@H]3[NH]2)[O]C1=O` (relative stereo) [Oxaliplatin, trans-L(1R,2R-diaminocyclohexane) oxalatoplatinum(II)]: the GI50 (as a rule, the concentration giving 50% growth inhibition) in the experiment on HT29 colon was 900 ± 200 nM; with U87 glioblastoma, 1800 ± 200 nM; in the experiment with H460 lung, 1600 ± 100 nM; with A431 skin, 4100 ± 500 nM; in the experiment with Du145 prostate, 2900 ± 400 nM; in the experiment with BE2-C neuroblastoma, 900 ± 200 nM. Further, the GI50 in the experiment with SJ-G2 glioblastoma is 3000 ± 1200 nM; with MIA pancreas, 900 ± 200 nM; in the experiment on A2780 ovarian, 160 ± 100 nM; in experiment [1], 800 ± 100 nM; with MCF-7 breast, 500 ± 100 nM; in experiment [2], 1460 ± 320 nM.
With `Cc1cc2cccnc2c2ncccc12.N[C@H]1CCCC[C@@H]1N.[OH][Pt+2][OH]` [5MESS(IV)(OH)2], the “MtMP Changes” value was 311 ± 3 RFU in the experiment on HT29 colon cells [3] (24 h, control 542 ± 4); 291 ± 9 RFU in the experiment on HT29 colon cells [3] (48 h, control 507 ± 11); 228 ± 7 RFU with HT29 colon cells [3] (72 h, control 449 ± 10). The “HDAC Inhibition at 72 h” value in experiment [4] amounted to 3119 ± 9 RFU. For the same molecule, the GI50 was 60 ± 6 nM in the experiment with HT29 colon; 900 ± 58 nM in the experiment with U87 glioblastoma; 60 ± 5 nM in the experiment with H460 lung; 360 ± 58 nM in the experiment on A431 skin; 41 ± 5 nM in the experiment with Du145 prostate; 1400 ± 300 nM with BE2-C neuroblastoma. Further, the 50% growth inhibitory concentration (GI50) was 640 ± 70 nM in the experiment with SJ-G2 glioblastoma; 160 ± 29 nM in the experiment on MIA pancreas; 240 ± 9 nM in the experiment with A2780 ovarian; 130 ± 22 nM in experiment [1]; 1200 ± 390 nM in the experiment with MCF-7 breast; 130 ± 19 nM in [5]. For the same molecule, the 50% growth inhibitory concentration (GI50) in experiment [2] is 443 ± 81 nM. The “ROS Production” value is recorded as 234 ± 1 RFU with HT29 colon cells [6] (24 h), 323 ± 9 RFU in the experiment on HT29 colon cells [6] (48 h) and 335 ± 2 RFU with HT29 colon cells [6] (72 h).
As to `Cc1cc2cccnc2c2ncccc12.N[C@H]1CCCC[C@@H]1N.[Pt+2]` [5MESS, [Pt^II(5-Mephen)(SS-DACH)]^2+], the “MtMP Changes” value stood at 283 ± 4 RFU in the experiment with HT29 colon cells [3] (24 h, control 542 ± 4); 261 ± 9 RFU with HT29 colon cells [3] (48 h, control 507 ± 11); 189 ± 11 RFU with HT29 colon cells [3] (72 h, control 449 ± 10). Also, the “HDAC Inhibition at 72 h” value in experiment [4] is 2124 RFU and 2124 ± 21 RFU. Besides, the GI50 in the experiment with HT29 colon was 33 ± 4 nM; with U87 glioblastoma it was 320 ± 26 nM; in the experiment on H460 lung it was 41 ± 5 nM; with A431 skin, 120 ± 25 nM; in the experiment on Du145 prostate, 22 ± 3 nM; in the experiment on BE2-C neuroblastoma it was 270 ± 38 nM. In addition, the concentration for 50% growth inhibition (GI50) in the experiment on SJ-G2 glioblastoma was 220 ± 10 nM; in the experiment with MIA pancreas, 48 ± 2 nM; in the experiment with A2780 ovarian, 61 ± 10 nM; in experiment [1], 34 ± 2 nM; in the experiment on MCF-7 breast, 200 ± 12 nM; in experiment [5], 30 ± 2 nM. In addition, in experiment [2], the concentration for 50% growth inhibition (GI50) was 117 ± 12 nM. The “ROS Production” value was 204 ± 4 RFU with HT29 colon cells [6] (24 h), 205 ± 3 RFU with HT29 colon cells [6] (48 h) and 188 ± 3 RFU in the experiment on HT29 colon cells [6] (72 h).
On to `N.N.O=C([O-])C1(C(=O)[O-])CCC1.[Pt+2]` [Carboplatin, cis-diammine(1,1-cyclobutanecarboxylato)platinum(II)], for which the concentration for 50% growth inhibition (GI50) with HT29 colon was more than 50000 nM; in the experiment with U87 glioblastoma it was more than 50000 nM; in the experiment on H460 lung it was 14000 nM; with A431 skin it was 24000 nM; in the experiment with Du145 prostate, 15000 nM; in the experiment with BE2-C neuroblastoma it was 19000 nM. The GI50 in the experiment on SJ-G2 glioblastoma was 5700 ± 200 nM; in the experiment with MIA pancreas, more than 50000 nM; with A2780 ovarian, 9200 ± 2900 nM; in experiment [1], more than 50000 nM; in the experiment with MCF-7 breast, more than 50000 nM; in experiment [5], more than 50000 nM. For the same molecule, the GI50 in [2] was 32200 nM.
Regarding `N#CC(C#N)=NNc1ccc(OC(F)(F)F)cc1` [FCCP, carbonyl cyanide 4-(trifluoromethoxy) phenylhydrazone], the “MtMP Changes” value was determined as 234 ± 3 RFU with HT29 colon cells [3] (24 h, control 542 ± 4); 151 ± 7 RFU with HT29 colon cells [3] (48 h, control 507 ± 11); 84 ± 5 RFU in the experiment with HT29 colon cells [3] (72 h, control 449 ± 10).
As for `CC(C)(C)OO` [TBHP, tert-butyl hydroperoxide], the “ROS Production” value in the experiment on HT29 colon cells [7] (24 h, control 60 ± 3) is 614 ± 21 RFU; in the experiment with HT29 colon cells [7] (48 h, control 63 ± 4), 477 ± 23 RFU; in the experiment with HT29 colon cells [7] (72 h, control 85 ± 6) it was 311 ± 18 RFU.
As to `CC(/C=C/C(=O)NO)=C\[C@@H](C)C(=O)c1ccc(N(C)C)cc1` [Trichostatin A (TSA), Trichostatin A], the “HDAC Inhibition at 72 h” value in experiment [4] is given as 749 ± 8 RFU; in experiment [4] (listed as TSA) it was 749 RFU.

The values above are taken from PMC10888562 (International Journal of Molecular Sciences, 2024).
